This assay in a line: Imbibition test of intrinsic inhibition strength of free inhibitors. The conditions noted are these: inhibitor prebath 5×10^-5 M, pH 10 carbonate buffer plus 0.1% dimethylformamide, 38° C., 2 min. From the text:
Development inhibitors are generally released imagewise from an incorporated DIR compound during processing of the exposed photographic element. To evaluate the intrinsic inhibition strength of such inhibitors, independent of DIR release, an imbibition test is used. This involves imbibing an exposed film strip with a solution containing a given concentration of the free inhibitor to be tested. Nitrogen burst agitation of the imbibing solution improves the repeatability and effectiveness of inhibitor incorporation. The measured strength obtained by this test serves as an important guide in selecting inhibitors for desired photographic acutance improvements.
Film samples for imbibition testing of inhibitors were prepared having the following schematic layer structure and using a silver bromoiodide emulsion containing 6.4 mole % iodide (numerical values denote coating coverages in mg/m^2 and the silver halide values are for equivalent weights of silver):
Film strips cut from this coated element were exposed through a graduated density test object and a Kodak Wratten 99 (green) filter. Before development a strip was immersed at 38° C. under nitrogen agitation in each of the separate prebaths containing a test inhibitor at 5×10^-5 M concentration in a pH 10 carbonate buffer plus 0.1% dimethylformamide. As controls, each test set included a check strip which was immersed in a prebath containing no inhibitor and strips immersed in prebaths containing the comparison inhibitors phenylmercaptotetrazole (CI-1) and ethylmercaptotetrazole (CI-2). Photographic processing was carried out at 38° C. in the following steps:
The density of each test strip at this same exposure was noted and the inhibition strength number (I.S. No.) calculated using the equation: [formula]
Larger I.S. numbers for given inhibitors indicate stronger inhibition resulting in less dye density formed. Table IV lists these […], as well as calculated log P values, for a number of inhibitors released by compounds of the invention and for comparison inhibitors CI-1 through CI-8. It can be seen that, at equivalent partition coefficient (Log P) values, the inhibitors useful in the invention show higher inhibition strength than the controls. Alternatively, at approximately equal inhibition strength, inhibitors of the invention have lower partition coefficients.
As to `Sc1nnnn1-c1ccccc1` [CI-1, phenylmercaptotetrazole, reference compound], the “Inhibition Strength No.” value is given as 80. The same measure for `CCn1nnnc1S` [CI-2, reference compound]: 15; for `CCCCCCCCc1nn[nH]n1` [CI-3, reference compound]: 18. To `CCCCCCCCCSc1nn[nH]n1` [CI-4, reference compound] belongs 43; to `CCCCCCN(CCCCCC)c1nn[nH]n1` [CI-5, reference compound], 52. The same measure for `CCCCCOc1ccc(-c2nn[nH]n2)cc1` [CI-6, reference compound]: 16. Regarding `O=C(Oc1ccccc1)c1ccc2[nH]nnc2c1` [CI-7, reference compound], the “Inhibition Strength No.” value is 40.

In the case of `CCOc1cc2nn[nH]c2cc1OCC` [CI-8, reference compound], the “Inhibition Strength No.” value is listed as 35.

As for `CCCCCCCCCSCc1nn[nH]n1` [Compound I-5], the “Inhibition Strength No.” value is on record as 95.

For `CCCCCCCCSCCc1nn[nH]n1` [Compound I-21], the “Inhibition Strength No.” value is given as 95.

As for `CCCCCCCSCCCc1nn[nH]n1` [Compound I-22], the “Inhibition Strength No.” value is 94.

With `CCCCCCSCCCc1nn[nH]n1` [Compound I-23], the “Inhibition Strength No.” value was found to be 77. As for `CCCSCCCc1nn[nH]n1` [Compound I-24], the “Inhibition Strength No.” value is listed as 20. To `CCCCSCCCOc1ccc(-c2nn[nH]n2)cc1` [Compound I-26] belongs 67; to `CCCCSCCN(CCSCCCC)c1nn[nH]n1` [Compound I-37], 66. The same measure for `CCCCSCCCCCCc1nn[nH]n1` [Compound I-51]: 83; for `CCSCCSCCCc1nn[nH]n1` [Compound I-134]: 77.

As to `CCCSCCSCc1ccccc1-c1nn[nH]n1` [Compound I-136], the “Inhibition Strength No.” value is listed as 84. Take `CCCSCCOC(=O)c1ccc2[nH]nnc2c1` [Compound I-137]: the “Inhibition Strength No.” value is listed as 86. For `CCCSc1ccc2[nH]nnc2c1` [Compound I-138], the “Inhibition Strength No.” value is reported as 69. To `CSCCSc1ccc2[nH]nnc2c1` [Compound I-139, 6'-(2-methylthioethylthio)benzotriazole] belongs 88.

Source of the values: patent US5006448A, “Photographic material and process” (Eastman Kodak Company, priority 1989, dated 1991).
